Laboratory results taken from patent US8486991B2, “Enantiomerically pure phosphoindoles as HIV inhibitors” (Idenix Pharmaceuticals, Inc., priority 2006, dated 2013).
“Also recorded” adds a separate entry of the source. Like-named read-outs stand apart in the source and are kept apart here.

Columns and labels:
CYP3A4 = CYP3A4 (Homo sapiens, UniProt P08684); assay: Human liver microsomal CYP450 inhibition, CYP3A4; details: for Ki / Type of inhibition, CYP3A4 (Midazolam) / Type of inhibition, CYP3A4 (Testosterone) / kinact: human liver microsomes; for IC50: pooled human liver microsomes, probe midazolam and testosterone; for type of inhibition of CYP3A4: text b965, substrate not stated
Sequence of CYP3A4 (P08684 whole entry): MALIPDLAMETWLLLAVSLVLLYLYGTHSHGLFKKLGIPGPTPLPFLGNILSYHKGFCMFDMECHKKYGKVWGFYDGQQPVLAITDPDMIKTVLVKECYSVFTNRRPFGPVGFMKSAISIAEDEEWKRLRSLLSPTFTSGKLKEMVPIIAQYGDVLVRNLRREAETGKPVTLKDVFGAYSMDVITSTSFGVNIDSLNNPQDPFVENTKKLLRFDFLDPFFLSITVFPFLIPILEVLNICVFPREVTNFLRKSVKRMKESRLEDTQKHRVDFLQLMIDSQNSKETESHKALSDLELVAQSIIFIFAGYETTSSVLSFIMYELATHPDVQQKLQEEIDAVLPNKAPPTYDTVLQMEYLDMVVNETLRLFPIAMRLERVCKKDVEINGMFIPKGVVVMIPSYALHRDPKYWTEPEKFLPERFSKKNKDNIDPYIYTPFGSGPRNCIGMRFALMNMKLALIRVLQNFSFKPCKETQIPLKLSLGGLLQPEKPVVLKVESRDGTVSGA

[1] = In vitro half-life in liver microsomes, rat; format: in vitro ADME; details: up to one hour, longer half-lives are extrapolated, n=1
Description: (§1) In vitro metabolism was assessed using liver microsomes for all species. Compounds were incubated at 1 μM with liver microsomes for up to one hour. Reported half-lives greater than the total incubation time are extrapolated values. Extracts were assayed for disappearance of parent compound by LC-MS/MS detection.
(§2) Data represents one independent experiment conducted.

Sprague-Dawley rats = assay: 14-day oral toxicity, rats; format: in vivo, rat; details: for thyroid microscopic findings / effects on food consumption or body weight: rats; for thyroid microscopic findings: all dose groups except low dose compound III-treated females; for effects on food consumption or body weight: once daily oral gavage 14 days, up to 500 (I) or 450 (III) mg/kg/day
Description: Sprague-Dawley rats and cynomolgus monkeys were dosed once daily for 14 days via oral gavage with compound I or compound III or dose vehicle (68% Capmul PG-8, 20% PEG 400, 2% Tween 20, and 10% Labrasol) according to GLP. There were 10 male and 10 female rats, and there were 3 male and 3 female monkeys. Rats and monkeys were dosed with 0, 50, 150 or 500 mg/kg/day compound I or with 0, 50, 150, 450 mg/kg/day compound III.
Toxicity was assessed using clinical observations, body weights, food consumption, and clinical pathology (hematology, coagulation, and serum chemistry).
A comprehensive necropsy and gross pathological examination was performed on all animals and selected organs and tissues were collected for histological evaluation.
Determinations of hematocrit, hemoglobin concentration, erythrocyte count, total leukocyte count, and platelet count were conducted on all samples. Leukocyte differential and morphologic assessments were performed.
Clinical biochemistry determinations included activities of alanine aminotransferase (ALT), aspartate aminotransferase (AST), gamma-glutamyltranspeptidase (GGT), and alkaline phosphatase (ALP) and concentrations of blood urea nitrogen (BUN), creatinine, total protein, albumin, globulin, glucose, cholesterol, triglycerides, total bilirubin, and electrolyte levels (Na, K, P, Cl, Ca).

[2] = Plasma protein binding by equilibrium dialysis, monkey; format: in vitro ADME
Description: The in vitro plasma protein binding of compound I and compound III in rat, dog, monkey and human plasma was determined by equilibrium dialysis. Protein binding was assessed by equilibrium dialysis using rat, dog, monkey and human plasma. Samples were assayed by HPLC with LC-MS/MS detection. Plasma protein binding was high (>99%) for all species and for both compounds.

CYP1A2 = target: T1, CYP1A2 (Homo sapiens, UniProt P05177); assay: Recombinant CYP450 inhibition, fluorometric, CYP1A2; format: in vitro ADME; design: from tissue; host or cells: pooled human liver microsomes
T1 sequence (P05177 1-516): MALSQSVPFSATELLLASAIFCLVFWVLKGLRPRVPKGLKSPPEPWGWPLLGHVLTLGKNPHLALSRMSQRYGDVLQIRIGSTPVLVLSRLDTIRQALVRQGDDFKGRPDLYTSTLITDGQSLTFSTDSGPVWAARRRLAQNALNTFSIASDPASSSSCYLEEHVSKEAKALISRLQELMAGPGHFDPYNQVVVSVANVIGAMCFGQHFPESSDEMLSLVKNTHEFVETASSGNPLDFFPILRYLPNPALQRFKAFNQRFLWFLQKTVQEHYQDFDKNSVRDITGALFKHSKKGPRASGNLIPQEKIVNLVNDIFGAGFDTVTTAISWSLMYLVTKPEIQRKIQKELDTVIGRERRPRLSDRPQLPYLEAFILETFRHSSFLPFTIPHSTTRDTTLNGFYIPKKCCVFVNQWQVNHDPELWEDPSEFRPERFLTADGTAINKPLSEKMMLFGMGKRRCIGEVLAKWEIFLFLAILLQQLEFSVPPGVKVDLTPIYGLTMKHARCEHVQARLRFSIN
Description: Compounds were assayed using recombinant human microsomal proteins with fluorometric substrates. Signal was measured with a Fusion plate reader utilizing the appropriate excitation and emission wavelength set to detect the specific metabolite: […]

[3] = Compound depletion in hepatocytes, rat; format: in vitro ADME; details: up to 2 hours, read-out: t½, Compound Depletion in Hepatocytes, Rat
Description: Fresh hepatocytes were plated onto collagen-coated plates and exposed to test compounds at 1 μM for up to 2 hours. Tissue culture medium was assayed for compound depletion by LC/MS detection. Values in Table 23 represent independent experiments from 5 to 7 donors.

[4] = In vitro half-life in liver microsomes, human; format: in vitro ADME; details: up to one hour, longer half-lives are extrapolated, n=1
Description: as §1, §2

CYP2C9 = CYP2C9 (Homo sapiens, UniProt P11712); assay: Human liver microsomal CYP450 inhibition, CYP2C9; details: for Type of inhibition, CYP2C9 (Diclofenac): human liver microsomes
Sequence of CYP2C9 (P11712 whole entry): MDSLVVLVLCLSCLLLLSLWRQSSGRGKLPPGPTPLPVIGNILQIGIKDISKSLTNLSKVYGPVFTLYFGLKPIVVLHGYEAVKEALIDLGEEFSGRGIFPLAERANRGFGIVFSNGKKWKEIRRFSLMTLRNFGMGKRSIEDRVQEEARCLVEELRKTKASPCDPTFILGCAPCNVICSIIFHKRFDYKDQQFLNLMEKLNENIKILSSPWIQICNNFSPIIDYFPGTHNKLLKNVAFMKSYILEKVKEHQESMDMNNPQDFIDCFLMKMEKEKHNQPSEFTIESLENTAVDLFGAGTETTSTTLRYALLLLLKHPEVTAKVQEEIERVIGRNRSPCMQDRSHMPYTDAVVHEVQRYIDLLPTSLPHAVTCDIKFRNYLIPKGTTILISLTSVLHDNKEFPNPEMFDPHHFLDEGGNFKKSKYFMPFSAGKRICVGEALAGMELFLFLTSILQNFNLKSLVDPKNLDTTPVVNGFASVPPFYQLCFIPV
Description: In addition, the type of inhibition was also evaluated.
Enzyme kinetic studies of cytochrome P450 isozyme inhibition were conducted using human liver microsomes.
Probe substrate for 2C8 was paclitaxel, probe substrate for 2C9 was diclofenac and for 3A4 probe substrates were midazolam and testosterone.

wild-type HIV-1 virus = assay: In vitro drug-drug interaction with NRTIs and PIs, MT-4 cells, 45% HS; format: cell-based; details: 45% human serum, low (1×) and high (5×) concentration
Description: The in vitro effect of each antiretroviral drug on the antiviral activity of either test article was tested in triplicate on wild-type HIV-1 virus infection of MT-4 human T cells using a standard drug susceptibility assay (DSA) performed in 45% human serum (HS) to provide a better estimate of interactions that would occur under protein binding conditions found in vivo. Compound I or Compound III were titrated alone or in combination with each NRTI or PI.
The impact of each NRTI or PI on the efficacy of Compound I or Compound III was tested at two different drug concentrations, a “low” (1×) and a “high” (5×) concentration; the high concentration used for each compound was determined from pilot experiments conducted to ensure that measurable inhibition values could still be obtained in the presence of 45% HS.
These in vitro drug-drug interaction studies were powered primarily to determine the potential for negative interactions between the different classes of HIV drugs, rather than to examine the potential for synergy between the different agents.

[5] = CYP3A4 (Testosterone), time dependent inhibition
[6] = human, pooled human liver microsomes, probe diclofenac

SMILES	Ki (CYP3A4; [5]) [nM]	Type of inhibition, CYP3A4 (Midazolam) (CYP3A4)	Type of inhibition, CYP3A4 (Testosterone) (CYP3A4)	kinact (CYP3A4; human, probe midazolam) [s⁻¹]	kinact (CYP3A4; human, probe testosterone) [s⁻¹]	IC50 (CYP3A4; human) [µM]	type of inhibition of CYP3A4 (CYP3A4)	thyroid microscopic findings (Sprague-Dawley rats)	effects on food consumption or body weight (Sprague-Dawley rats)	Percentage Plasma Protein Binding, Monkeys [2] [%]	Ki (CYP2C9) [nM]	Type of inhibition, CYP2C9 (Diclofenac) (CYP2C9)	IC50 (CYP2C9; [6]) [µM]	interaction with 7 NRTIs or 6 PIs (wild-type HIV-1 virus)	other results
CO[P@](=O)(c1cc(C)cc(/C=C/C#N)c1)c1c(C(N)=O)[nH]c2ccc(Cl)cc12 [Compound III, (2-Carbamoyl-5-chloro-1H-indol-3-yl)-[3-((E)-2-cyano-vinyl)-5-methyl-phenyl]-(R)-phosphinic acid methyl ester]	210	mechanism-based inhibition	mechanism-based inhibition	0.001	0.000833	< 10	mechanism based inhibition	minimal to mild thyroid follicular cell hypertrophy/hyperplasia	No effects	99.9	930	competitive inhibition	< 10	no negative interaction observed; also recorded: none of the seven HIV NRTI drugs or the six HIV PI drugs tested exhibited a measurable negative or antagonistic interaction	Ki (CYP3A4; CYP3A4 (Midazolam), time dependent inhibition): 60 nM; half-life at 1 μM ([1]; liver microsomes): 88.8 min; organ weights (Sprague-Dawley rats; rats (females only), mid and high doses, livers microscopically unremarkable): increased liver weights; IC50 (CYP1A2; highest concentration tested 20 μM): 17.6 ± 2.06 µM; half-life at 1 μM ([3]; fresh hepatocytes plated on collagen-coated plates): 17 ± 15 min; half-life at 1 μM ([4]; liver microsomes): 154 min; Type of inhibition, CYP2C9 (Diclofenac) (CYP2C9; listed as compound III): competitive inhibition
CO[P@](=O)(c1cc(C)cc(/C=C/C#N)c1)c1c(C(N)=O)[nH]c2ccc(Cl)c(F)c12 [Compound I, (2-Carbamoyl-5-chloro-4-fluoro-1H-indol-3-yl)-[3-((E)-2-cyano-vinyl)-5-methyl-phenyl]-(R)-phosphinic acid methyl ester]	140	mechanism-based inhibition	mechanism-based inhibition	0.0012	0.00055	< 10	mechanism based inhibition	minimal to mild thyroid follicular cell hypertrophy/hyperplasia	No effects	99.9	1400	competitive inhibition	< 10	no negative interaction observed; also recorded: none of the seven HIV NRTI drugs or the six HIV PI drugs tested exhibited a measurable negative or antagonistic interaction	Ki (CYP3A4; human, 3A4, Example 18 table): 360 nM; Ki (CYP3A4; human, probe midazolam, CYP3A4 (Midazolam), time dependent inhibition): 180 nM; half-life at 1 μM ([1]; microsomes): 100 min; inhibition at 20 µM (CYP1A2; human, recombinant enzyme, 20 μM, read-out: percentage of inhibition at the highest concentration tested, CYP1A2): 17.5%; half-life at 1 μM ([3]; hepatocytes): 33 ± 26 min; half-life at 1 μM ([4]; microsomes): 121 min; Type of inhibition, CYP2C9 (Diclofenac) (CYP2C9; listed as compound I): competitive inhibition; Ki (CYP2C9; [6]): 1450 nM
